Data as given in PMC11879040, “Advancing systemic toxicity risk assessment: Evaluation of a NAM-based toolbox approach” (Toxicological Sciences, 2024).
pIC50: −log10 of the molar value. Like-named read-outs stand apart in the source and are kept apart here.

Legend:
Tubulin (r) = experiment: IPP Tubulin binding; parameters: species or system rat; conditions: ligand/control Colchicine
[1] = test system: Potassium Voltage-Gated Channel Kv non-selective, KCNQ1 (r); experiment: IPP KCNQ1 binding (antagonist radioligand); parameters: species or system rat; conditions: IPP screening at 100 uM; control α-dendrotoxin
[2] = target: Voltage-dependent L-type Ca2+ channel (dihydropyridine site), CACNA1C (r) (Rattus norvegicus, UniProt P22002); format: binding
Sequence of Voltage-dependent L-type Ca2+ channel (dihydropyridine site), CACNA1C (r) (P22002 whole entry): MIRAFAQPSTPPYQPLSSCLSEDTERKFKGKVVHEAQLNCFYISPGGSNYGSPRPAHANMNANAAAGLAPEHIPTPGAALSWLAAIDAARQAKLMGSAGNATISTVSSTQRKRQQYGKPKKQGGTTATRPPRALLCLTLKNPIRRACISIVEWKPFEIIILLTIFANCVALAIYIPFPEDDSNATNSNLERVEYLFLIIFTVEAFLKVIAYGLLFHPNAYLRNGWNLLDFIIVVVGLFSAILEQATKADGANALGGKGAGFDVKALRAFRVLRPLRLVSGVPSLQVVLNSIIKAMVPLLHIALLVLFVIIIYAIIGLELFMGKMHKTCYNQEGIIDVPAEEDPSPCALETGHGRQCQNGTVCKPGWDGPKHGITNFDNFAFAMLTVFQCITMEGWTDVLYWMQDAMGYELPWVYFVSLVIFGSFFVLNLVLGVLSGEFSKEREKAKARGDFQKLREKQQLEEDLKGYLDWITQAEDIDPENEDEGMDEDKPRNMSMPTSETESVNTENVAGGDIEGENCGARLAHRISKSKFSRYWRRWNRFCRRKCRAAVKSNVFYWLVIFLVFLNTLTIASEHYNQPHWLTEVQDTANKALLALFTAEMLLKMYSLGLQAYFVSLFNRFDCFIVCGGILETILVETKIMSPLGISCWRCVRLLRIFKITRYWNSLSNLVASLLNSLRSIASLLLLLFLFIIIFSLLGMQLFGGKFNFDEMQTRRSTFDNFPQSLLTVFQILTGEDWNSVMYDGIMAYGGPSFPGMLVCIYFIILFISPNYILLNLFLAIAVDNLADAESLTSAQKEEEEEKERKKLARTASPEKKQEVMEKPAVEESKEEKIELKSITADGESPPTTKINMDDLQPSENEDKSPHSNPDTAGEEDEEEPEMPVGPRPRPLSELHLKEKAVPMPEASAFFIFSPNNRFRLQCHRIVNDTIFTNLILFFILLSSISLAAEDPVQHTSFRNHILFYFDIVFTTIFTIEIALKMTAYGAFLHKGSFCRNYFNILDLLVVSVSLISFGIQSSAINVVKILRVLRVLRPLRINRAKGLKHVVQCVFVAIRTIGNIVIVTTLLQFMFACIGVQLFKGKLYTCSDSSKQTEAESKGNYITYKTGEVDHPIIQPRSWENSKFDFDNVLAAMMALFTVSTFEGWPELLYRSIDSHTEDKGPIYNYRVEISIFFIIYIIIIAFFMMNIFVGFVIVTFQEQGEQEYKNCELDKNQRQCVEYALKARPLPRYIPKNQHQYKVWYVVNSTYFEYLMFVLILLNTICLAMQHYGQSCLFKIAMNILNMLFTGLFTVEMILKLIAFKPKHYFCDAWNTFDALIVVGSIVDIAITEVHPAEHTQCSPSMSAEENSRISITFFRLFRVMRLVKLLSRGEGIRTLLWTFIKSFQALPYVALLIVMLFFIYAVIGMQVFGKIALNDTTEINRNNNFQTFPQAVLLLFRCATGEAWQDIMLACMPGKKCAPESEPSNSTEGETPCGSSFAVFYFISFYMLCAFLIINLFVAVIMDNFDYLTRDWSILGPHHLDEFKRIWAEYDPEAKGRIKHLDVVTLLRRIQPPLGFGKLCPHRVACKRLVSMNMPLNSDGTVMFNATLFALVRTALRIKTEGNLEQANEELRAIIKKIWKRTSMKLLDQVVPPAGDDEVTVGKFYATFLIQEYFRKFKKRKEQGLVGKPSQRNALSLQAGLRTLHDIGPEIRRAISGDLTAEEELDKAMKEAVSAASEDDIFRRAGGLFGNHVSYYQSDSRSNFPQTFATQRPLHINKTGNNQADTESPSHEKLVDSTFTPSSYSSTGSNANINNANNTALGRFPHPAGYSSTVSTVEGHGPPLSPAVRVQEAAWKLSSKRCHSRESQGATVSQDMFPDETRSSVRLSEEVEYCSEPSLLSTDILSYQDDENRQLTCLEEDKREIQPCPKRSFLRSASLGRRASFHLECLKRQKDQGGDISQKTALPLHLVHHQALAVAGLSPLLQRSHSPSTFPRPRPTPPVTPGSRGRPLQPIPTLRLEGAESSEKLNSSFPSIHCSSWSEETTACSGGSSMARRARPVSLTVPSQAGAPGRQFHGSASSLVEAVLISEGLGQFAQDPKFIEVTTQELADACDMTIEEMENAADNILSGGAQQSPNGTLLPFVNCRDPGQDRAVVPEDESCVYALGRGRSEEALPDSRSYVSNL

[3] = cited from earlier work
[4] = target: Dopamine receptor D2, DRD2 (h) (Homo sapiens, UniProt P14416); experiment: biochemical
Sequence of Dopamine receptor D2, DRD2 (h) (P14416 whole entry): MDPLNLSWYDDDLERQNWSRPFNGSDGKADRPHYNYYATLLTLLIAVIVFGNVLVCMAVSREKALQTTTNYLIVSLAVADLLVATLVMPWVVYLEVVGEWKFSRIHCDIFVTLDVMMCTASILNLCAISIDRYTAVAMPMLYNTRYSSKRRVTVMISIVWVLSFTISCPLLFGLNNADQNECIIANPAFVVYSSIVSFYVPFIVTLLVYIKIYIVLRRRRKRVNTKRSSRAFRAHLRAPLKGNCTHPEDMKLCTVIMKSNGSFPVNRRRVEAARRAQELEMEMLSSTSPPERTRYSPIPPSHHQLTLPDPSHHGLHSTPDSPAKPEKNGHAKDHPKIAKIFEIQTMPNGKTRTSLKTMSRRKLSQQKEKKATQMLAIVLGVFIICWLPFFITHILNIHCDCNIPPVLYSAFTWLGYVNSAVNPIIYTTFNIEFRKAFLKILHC

[5] = Assignment of risk classifications to benchmark chemical-exposure scenarios; conditions: from table S1
[6] = cited from earlier work; remark: listed apart in the source
[7] = test system: Thyroid hormone receptor alpha, THRA (h); experiment: IPP THRA coactivator recruitment (agonist); format: biochemical, human; conditions: agonist, T3
HepG2 cells [8] = experiment: High-throughput transcriptomics (HTTr, TempO-Seq), HepG2, 24 h; format: cell-based, human
Experimental: (§1) HepG2, HepaRG, and MCF7 cells were treated with each compound for 24 h across a dose range of 7 concentrations and lysed using TempO-Seq lysis buffer (BioSpyder Technologies, proprietary kit, see [Middleton et al. 2022] for method details). Sequencing was performed using TempO-Seq (BioClavis) version 2 of the human whole transcriptome panel and analyzed as described previously in Middleton et al.

[9] = target: T1, Adenosine receptor A2a, ADORA2A (h) (Homo sapiens, UniProt P29274); experiment: IPP ADORA2A binding (agonist radioligand); conditions: control NECA
T1 construct: purchased Eurofins Cerep (SafetyScreen44-based IPP panel)
T1 sequence (P29274 whole entry): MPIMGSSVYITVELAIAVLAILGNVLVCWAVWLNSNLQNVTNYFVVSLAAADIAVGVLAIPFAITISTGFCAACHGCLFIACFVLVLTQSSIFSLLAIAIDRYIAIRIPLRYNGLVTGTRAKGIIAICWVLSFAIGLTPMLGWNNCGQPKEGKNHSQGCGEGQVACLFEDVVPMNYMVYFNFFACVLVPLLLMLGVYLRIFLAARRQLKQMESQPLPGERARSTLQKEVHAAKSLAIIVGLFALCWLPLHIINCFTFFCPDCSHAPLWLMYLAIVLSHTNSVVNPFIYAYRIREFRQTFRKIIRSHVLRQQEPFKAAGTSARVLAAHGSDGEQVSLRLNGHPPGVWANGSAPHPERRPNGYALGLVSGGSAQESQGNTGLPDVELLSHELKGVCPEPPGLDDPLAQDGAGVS

[10] = test system: Sodium channel protein type 5 subunit alpha (site 2), SCN5A (r); format: binding, rat
[11] = test system: Gamma-aminobutyric acid receptor subunit alpha-1 BZD site, GABRA1A (r); format: binding, rat; conditions: control diazepam
[12] = PBK input, levels L2/L3; ref [5]; cited from earlier work
[13] = unbound fraction in plasma (fup); conditions: PBK input, levels L2/L3; median of [2] internal data (unpublished) and [10]
[14] = test system: 63 targets with known safety liabilities; experiment: In vitro pharmacological profiling (IPP) panel, screening at 10 or 100 µM and dose response, minimum IC50/AC50; format: biochemical; conditions: lowest AC50 across IPP panel (systemic targets); cell_type -; read-out: ipp_lowest_ac50_systemic PoD
[15] = target: T2, Pregnane X receptor PXR, NR1I2 (h) (Homo sapiens, UniProt O75469)
T2 sequence (O75469 1-434): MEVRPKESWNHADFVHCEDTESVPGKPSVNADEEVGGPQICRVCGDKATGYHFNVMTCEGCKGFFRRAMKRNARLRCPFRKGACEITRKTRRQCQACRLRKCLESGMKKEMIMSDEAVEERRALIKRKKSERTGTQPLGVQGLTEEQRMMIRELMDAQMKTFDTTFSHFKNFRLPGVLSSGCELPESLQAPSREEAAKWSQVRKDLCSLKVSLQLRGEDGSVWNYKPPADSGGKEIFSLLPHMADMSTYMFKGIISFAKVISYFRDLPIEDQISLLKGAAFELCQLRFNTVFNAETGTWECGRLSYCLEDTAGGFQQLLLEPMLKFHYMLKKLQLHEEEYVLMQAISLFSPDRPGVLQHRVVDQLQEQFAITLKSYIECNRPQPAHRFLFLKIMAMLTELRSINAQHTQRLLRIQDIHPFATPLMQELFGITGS

[16] = human
[17] = target: T3, Estrogen receptor, ER1 (h) (Homo sapiens, UniProt P03372); experiment: IPP ER1 coactivator recruitment (antagonist); format: biochemical; conditions: 10 uM, estriol
T3 construct: purchased Eurofins Cerep (SafetyScreen44-based IPP panel)
T3 sequence (P03372 1-595): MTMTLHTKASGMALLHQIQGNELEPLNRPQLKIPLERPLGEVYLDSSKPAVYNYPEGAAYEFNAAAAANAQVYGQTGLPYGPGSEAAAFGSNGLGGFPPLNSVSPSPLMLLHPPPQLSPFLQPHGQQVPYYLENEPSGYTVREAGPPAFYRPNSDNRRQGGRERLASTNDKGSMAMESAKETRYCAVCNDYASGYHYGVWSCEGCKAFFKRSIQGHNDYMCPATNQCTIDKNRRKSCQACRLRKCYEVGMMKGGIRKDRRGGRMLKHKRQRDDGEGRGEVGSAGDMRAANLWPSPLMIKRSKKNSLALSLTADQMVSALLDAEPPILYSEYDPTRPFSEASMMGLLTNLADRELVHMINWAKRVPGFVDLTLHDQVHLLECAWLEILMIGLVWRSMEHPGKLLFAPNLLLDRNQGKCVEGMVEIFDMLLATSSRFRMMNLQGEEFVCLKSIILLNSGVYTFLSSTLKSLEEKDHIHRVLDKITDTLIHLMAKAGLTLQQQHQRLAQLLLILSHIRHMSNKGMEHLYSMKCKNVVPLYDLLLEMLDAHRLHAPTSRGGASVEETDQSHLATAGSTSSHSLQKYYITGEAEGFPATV

HepaRG cells = experiment: High-throughput transcriptomics (HTTr, TempO-Seq), HepaRG, 24 h; format: cell-based, human; conditions: HepaRG
Experimental: as §1

rat = conditions: rat; 28 days; changes in thyroid hormone levels; ref ToxRefDB/Paul-Friedman et al. (2020)/regulatory opinions; cited from earlier work
[18] = test system: Glutamate receptor ionotropic NMDA 1 non-selective, GRIN1 (r); conditions: IPP screening at 10 uM; control CGS 19755
[19] = target: T3, Estrogen receptor, ER1 (h); experiment: IPP ER1 coactivator recruitment (agonist); format: biochemical; conditions: 10 uM, estriol
MCF7 cells = experiment: High-throughput transcriptomics (HTTr, TempO-Seq), MCF7, 24 h; format: cell-based, human; conditions: MCF-7
Experimental: as §1

HepG2 cells [20] = experiment: Cell stress panel (CSP), 24 h, 8 concentrations, BIFROST global PoD; format: cell-based; conditions: HepG2; cell stress panel PoD
Experimental: Compounds were tested using the previously developed cell stress panel ([Hatherell et al. 2020]) and the expanded biomarker panel outlined in Middleton et al. HepG2 cells were treated with all compounds for 24 h across 8 concentrations prior to biomarker analysis. The same plate layout and number of replicates (3 biological and 2 technical) were used as previously for each assay within the panel.

[21] = hepatic intrinsic clearance (Clint); conditions: PBK level L3; optimised against clinical data; per chemical [8],[9],[14],[16],[22],[24],[25],[29],[30],[32]
[22] = PBK model plasma Cmax estimate (Gastroplus 9.8; levels L1, L2, L3); parameters: species or system human; conditions: therapeutic uses
[23] = at the given pH, single value or median, cited from earlier work
[24] = PBK level L2, taken or scaled from references (median where several), ref [6],[7],[10],[19]
[25] = IV 10 mg infusion (8.9 mg), 6 healthy, calibration, ref Ross-Lee et al. 1981
[26] = IV 20 mg infusion (15.4 mg base), 8 healthy, validation, ref Magueur et al. 1991
[27] = Oral 10 mg tablet (8.9 mg), fasted, 6 healthy, calibration, ref Ross-Lee et al. 1981
[28] = Oral 10 mg tablet (8.9 mg), fasted, 8 healthy male, validation, ref Bateman et al. 1980
[29] = Oral 20 mg tablet (17 mg base), fasted, 8 healthy, validation, ref Magueur et al. 1991
[30] = Oral 20 mg tablet (17.8 mg), fasted, 8 healthy male, validation, ref Bateman et al. 1980
[31] = Oral 200 mg solution, fasted, 23 healthy male, validation, ref Huang et al. 1986
[32] = Oral 200 mg suspension, fasted, 23 healthy male, validation, ref Huang et al. 1986
[33] = Oral 200 mg tablet, fasted, 23 healthy male, validation, ref Huang et al. 1986
[34] = Oral 200 mg tablet, fed, 6 healthy male, calibration, ref Daneshmend et al. 1981
[35] = Oral 200 mg tablet, fed, 8 healthy male, validation, ref Daneshmend et al. 1983

Compound: CCN(CC)CCNC(=O)c1cc(Cl)c(N)cc1OC [Metoclopramide, 4-Amino-5-chloro-N-[2-(diethylamino)ethyl]-2-methoxybenzamide]
- IPP screening %, Specific binding (Tubulin (r); 100 uM): 0.0%
- Specific binding [1]: -1.0%
- Specific binding [2]: -18.6%
- Intrinsic Liver Clearance [3, 24]: 33.81 L/h
- Intrinsic Liver Clearance ([3]; PBK level L3, scaled from references (median where several), ref [7],[10],[19]): 33.81 L/h
- pIC50 [4]: 7.34
- risk ([5]; IV, High therapeutic, 30 mg/day, Exp3): 1
- risk ([5]; Oral, High therapeutic, 30 mg/day, Tablet, Exp2): 1
- risk ([5]; Oral, Low therapeutic, 10 mg/day, Tablet, Exp1): 1
- Reported AUC0-t [6, 25]: 325.9 ng·h/mL
- Reported cmax [6, 25]: 129.1 ng/mL
- Reported tmax [6, 25]: 0.076 h
- Reported AUC0-t [6, 26]: 968.3 ng·h/mL
- Reported cmax [6, 26]: 201.3 ng/mL
- Reported tmax [6, 26]: 0.042 h
- Reported AUC0-t [6, 27]: 247.7 ng·h/mL
- Reported cmax [6, 27]: 51.06 ng/mL
- Reported tmax [6, 27]: 0.746 h
- Reported AUC0-t [6, 28]: 142.87 ng·h/mL
- Reported cmax [6, 28]: 39.948 ng/mL
- Reported tmax [6, 28]: 0.7767 h
- Reported AUC0-t [6, 29]: 604 ng·h/mL
- Reported cmax [6, 29]: 55.85 ng/mL
- Reported tmax [6, 29]: 2.01 h
- Reported AUC0-t [6, 30]: 359.8 ng·h/mL
- Reported cmax [6, 30]: 75.62 ng/mL
- Reported tmax [6, 30]: 1.037 h
- IPP screening %, Coactivator recruitment ([7]; 100 uM, * denotes assay interference (2-Amino-6-chloro-4-nitrophenol, HC Red 3)): 1.0%
- next lowest PoD, HepG2 HTTr (HepG2 cells [8]; BIFROST gene level PoD): 16 µM
- Specific binding ([9]; IPP screening at 100 uM): 6.5%
- Specific binding [10]: 40.1%
- Specific binding ([11]; IPP screening at 100 uM): 29.4%

Compound: CN(C)[C@@H]1C(O)=C(C(N)=O)C(=O)[C@@]2(O)C(O)=C3C(=O)c4c(O)cccc4[C@@](C)(O)[C@H]3[C@H](O)[C@@H]12 [Oxytetracycline]
- logP/D [12]: -1.307
- Fup [13]: 68.88%

Compound: CC(=O)N1CCN(c2ccc(OC[C@H]3CO[C@](Cn4ccnc4)(c4ccc(Cl)cc4Cl)O3)cc2)CC1 [Ketoconazole, 1-{4-[4-({(2R,4S)-2-(2,4-Dichlorophenyl)-2-[(1H-imidazol-1-yl)methyl]-1,3-dioxolan-4-yl}methoxy)phenyl]piperazin-1-yl}ethan-1-one]
- IPP screening %, Specific binding (Tubulin (r); 10 uM): -15.0%
- AC50 [14]: 380 nM
- IPP Dose Response PoD: PXR antagonist [15]: [7.8,21.8]
- Fup [16]: 0.1%
- Intrinsic Liver Clearance [3, 24]: 1620.2 L/h
- risk ([5]; Dermal, Therapeutic, 2% daily, Shampoo, Exp2): 0
- risk ([5]; Dermal, Therapeutic, 2% twice weekly, Shampoo, Exp1): 0
- risk ([5]; Oral, 200 mg/day for fungal infection, Tablet, Exp4): 1
- risk ([5]; Oral, Therapeutic, 1200mg/day, Tablet, Exp3): 1
- Reported AUC0-t [6, 31]: 18170 ng·h/mL
- Reported cmax [6, 31]: 5160 ng/mL
- Reported tmax [6, 31]: 1 h
- Reported AUC0-t [6, 32]: 15730 ng·h/mL
- Reported cmax [6, 32]: 4660 ng/mL
- Reported tmax [6, 32]: 1 h
- Reported AUC0-t [6, 33]: 14740 ng·h/mL
- Reported cmax [6, 33]: 3260 ng/mL
- Reported tmax [6, 33]: 2 h
- Reported AUC0-t [6, 34]: 16940 ng·h/mL
- Reported cmax [6, 34]: 3573 ng/mL
- Reported tmax [6, 34]: 2.475 h
- Reported AUC0-t [6, 35]: 10330 ng·h/mL
- Reported cmax [6, 35]: 3636 ng/mL
- Reported tmax [6, 35]: 1.28 h
- IPP screening %, Coactivator recruitment [17]: 24.0%
- IPP screening %, Coactivator recruitment ([7]; 10 uM): 1.0%
- pod_httr_bifrost PoD (HepG2 cells [8]; HepG2, HTTr BIFROST PoD): 0.0007156 µM
- podl_path_minbmd PoD (HepG2 cells [8]; HepG2, HTTr minimum pathway BMD(L)): 0.9153 µM
- pod_httr_bifrost PoD (HepaRG cells; HTTr BIFROST PoD): 0.01699 µM
- podl_path_minbmd PoD (HepaRG cells; HTTr minimum pathway BMD(L)): 0.1535 µM
- PoD (NOEL) (rat): 6.25 mg/kg bw/day
- Specific binding [18]: 2.7%
- IPP screening %, Coactivator recruitment [19]: -1.0%
- Specific binding ([9]; IPP screening at 10 uM): 2.1%
- pod_httr_bifrost PoD (MCF7 cells; HTTr BIFROST PoD): 0.1915 µM
- podl_path_minbmd PoD (MCF7 cells; HTTr minimum pathway BMD(L)): 0.1648 µM
- Specific binding ([11]; IPP screening at 10 uM): 15.5%
- pod_cell_stress PoD (HepG2 cells [20]): 0.1454 µM
- Intrinsic Liver Clearance [21]: 10077 L/h
- underprediction of the L3 result at L2 (Cmax) [22]: ≥ 5 fold
- Aqueous Solubility ([23]; PBK level L2, ref [1],[4],[5],[10],[11],[17],[26]): 42 µg/mL
- Aqueous Solubility ([23]; PBK level L3, ref [4],[5],[10],[11]): 42 µg/mL
